Values joined by “and” are separate entries in the source; they are usually repeats but may differ in a detail not shown here. Equal values may be shown once. “Also recorded” adds a separate entry of the source. Read-outs that look alike come from different tables or passages of the source.
Experiments:
Human plasmin = molecular target: T1, Human plasmin (Homo sapiens, UniProt P00747); test: Plasmin inhibition assay with chromogenic substrate S-2251, Dixon plot / Cornish-Bowden analysis; format: biochemical; conditions: role: inhibitor; for mode of inhibition (Cornish-Bowden plot): S-2251; for rp: relative potency = Ki^AMB/Ki^multi: benzamidine inhibitors relative to AMB; for rp/n: relative potency/number of benzamidine units: relative to AMB per benzamidine unit; for rp1: relative potency = Ki^AMB/Ki^multi: hetero-bivalent inhibitors relative to AMB; for rp2: relative potency = Ki^TXA or EACA/Ki^multi: hetero-bivalent inhibitors relative to TXA or EACA
T1 construct: a heavy chain (~60 kDa) comprising 5 kringle domains
T1 sequence (P00747 581-810 limits assumed): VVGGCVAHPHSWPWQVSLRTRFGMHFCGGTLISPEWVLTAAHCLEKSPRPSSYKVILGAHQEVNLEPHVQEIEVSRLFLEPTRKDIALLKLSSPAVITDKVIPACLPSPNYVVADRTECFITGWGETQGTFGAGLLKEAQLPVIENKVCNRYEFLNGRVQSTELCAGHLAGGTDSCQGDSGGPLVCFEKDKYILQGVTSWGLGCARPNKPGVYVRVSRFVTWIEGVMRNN
T1 sequence (P00747 97-580 limits assumed): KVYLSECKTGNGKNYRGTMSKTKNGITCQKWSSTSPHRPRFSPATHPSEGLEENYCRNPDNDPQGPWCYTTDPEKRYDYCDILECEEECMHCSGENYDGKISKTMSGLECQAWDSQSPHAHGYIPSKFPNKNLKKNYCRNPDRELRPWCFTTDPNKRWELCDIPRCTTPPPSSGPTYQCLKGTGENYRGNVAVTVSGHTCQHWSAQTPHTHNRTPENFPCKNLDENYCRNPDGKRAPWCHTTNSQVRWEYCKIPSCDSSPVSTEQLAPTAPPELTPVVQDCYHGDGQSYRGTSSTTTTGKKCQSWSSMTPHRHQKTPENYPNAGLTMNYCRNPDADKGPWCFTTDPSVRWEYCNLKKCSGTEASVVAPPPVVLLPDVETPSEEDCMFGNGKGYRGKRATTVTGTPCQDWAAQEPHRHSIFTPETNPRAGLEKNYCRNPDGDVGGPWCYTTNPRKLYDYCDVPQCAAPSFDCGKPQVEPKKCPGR
Protocol: Inhibition assays were performed on all synthesized multivalent affinity molecules in addition to free AMB and Pentamidine. […] Ki values were calculated for all multivalent affinity molecules via Dixon Plot analysis using the negative x-intersection point. […] A smaller Ki value indicates a higher degree of inhibition. Cornish-Bowden graphs (S/Vo vs I) were also plotted to verify the type of inhibition, i.e., competitive, uncompetitive, non-competitive, or mixed.
Parameters used to quantify multivalency, namely, relative potency (rp), and relative potency per unit (rp/n) were also computed. To evaluate the strength of the multivalent affinity molecules as compared to the monovalent affinity molecules, rp was used and is a ratio of Ki^mono to Ki^multi Ki of monovalent AMB was used for this calculation since AMB was utilized for synthesis of the multivalent affinity molecules. […] To better evaluate multivalency effects, rp/n was also computed to determine the benefit of linking multiple affinity moieties together.
Human plasmin (42.5 nM) over a range of inhibitor concentrations (0-2 mM) and chromogenic substrate concentrations (Chromogenix S-2251 100-500 μM) were utilized for Inhibition assays.
Human plasmin (42.5 nM) over a range of inhibitor concentrations (0-500 μM) and chromogenic substrate concentrations (Chromogenix S-2251 100-500 μM) were utilized for Inhibition assays.
In this example, homo-multivalent and hetero multivalent micelles were synthesized to determine their plasmin inhibition. […] After weighing and mixing the appropriate lipids amounts in chloroform, a lipid film was made by slowly evaporating chloroform while rotating the vial gently under air. The dried lipid film was placed in a desiccator under vacuum overnight. The lipid film was rehydrated using 2 mL PBS and was sonicated for 2 mins while heating at 60° C. to obtain more rapid and less polydisperse micelle formation by self-assembly. […] Human plasmin (42.5 nM) over a range of inhibitor concentrations (0-500 μM) and chromogenic substrate concentrations (Chromogenix S-2251 100-500 μM) were utilized for Inhibition assays.

[1] = molecular target: LBS sites on other kringle domains of plasmin; conditions: role: inhibitor; cited from earlier work
[2] = treatment delayed beyond 3 hours; cited from earlier work
tPA = tPA (Homo sapiens, UniProt P00750); test: tPA inhibition assay with chromogenic tPA substrate S-2288, Dixon plot analysis; format: biochemical; conditions: role: inhibitor; for tPA inhibition relative to another inhibitor / Ki: tPA 75 nM, S-2288 100-500 μM; for Ki: PBS pH 7.4, read-out: Inhibition constant (Ki); for tPA inhibition compared to plasmin: tPA vs plasmin
Sequence of tPA (P00750 36-562, species assumed): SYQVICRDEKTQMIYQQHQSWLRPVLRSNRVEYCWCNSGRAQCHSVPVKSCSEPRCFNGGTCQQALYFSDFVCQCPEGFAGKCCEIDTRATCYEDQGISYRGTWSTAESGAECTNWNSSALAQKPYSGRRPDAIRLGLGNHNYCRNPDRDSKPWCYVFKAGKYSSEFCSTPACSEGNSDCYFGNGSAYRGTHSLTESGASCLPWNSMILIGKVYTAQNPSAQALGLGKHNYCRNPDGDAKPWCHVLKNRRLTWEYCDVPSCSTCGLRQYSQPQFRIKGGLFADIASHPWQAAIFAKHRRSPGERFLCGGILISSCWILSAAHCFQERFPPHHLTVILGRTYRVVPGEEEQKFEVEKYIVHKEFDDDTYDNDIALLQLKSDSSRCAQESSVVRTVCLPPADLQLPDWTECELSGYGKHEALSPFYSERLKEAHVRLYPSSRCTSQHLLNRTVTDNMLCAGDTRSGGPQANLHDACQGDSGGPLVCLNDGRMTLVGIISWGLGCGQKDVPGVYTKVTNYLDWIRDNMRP
Protocol: Inhibition assays were performed using a fixed tPA concentration of 75 nM in PBS pH 7.4 over a range of Chromogenic tPA Substrate (S-2288) concentrations of 100-500 μM.

thrombin = thrombin (Homo sapiens, UniProt P00734); test: Thrombin inhibition assay with fluorogenic Thrombin Substrate III, Dixon plot analysis; format: biochemical; conditions: role: inhibitor; for Ki: PBS pH 7.4, 10% DMSO, read-out: Inhibition constant (Ki); for thrombin inhibition compared to plasmin: thrombin vs plasmin
Protocol: In this example, commercially available inhibitors shown in Table 1, Tri-AMB and all hetero-multivalent inhibitors were tested for their thrombin inhibition. Inhibition assays were performed using a fixed thrombin concentration of 0.25 U/mL in PBS pH 7.4 over a range of Thrombin Substrate III (fluorogenic) concentrations of 20-50 μM at 10% DMSO.

plasmin = conditions: role: inhibitor; Alves et al.; cited from earlier work
[3] = test system: light chain and kringle 5 of plasmin; conditions: cited from earlier work
[4] = substrate S-2251 100-500 μM, plasmin 42.5 nM, PBS pH 7.4, benzamidine inhibitors, Dixon plot, read-out: Inhibition constant (Ki)
[5] = thrombin 0.25 U/mL, Thrombin Substrate III 20-50 μM
[6] = hetero-bivalent inhibitors, human plasmin 42.5 nM, S-2251 100-500 μM, read-out: Inhibition constant (Ki)

## COCCOCCOCCOCCOCCOCCOCCOCCOCCOCCOCCOCCOCCOCCOCCOCCOCCOCCOCCOCCOCCOCCOCCOCCC(=O)NCc1ccc(C(=N)N)cc1 [m-dPEG24-AMB]
Human plasmin; plasmin 42.5 nM, PBS pH 7.4
  mode of inhibition (Cornish-Bowden plot): competitive inhibitor
Human plasmin; plasmin, S-2251 100-500 μM
  rp: relative potency = Ki^AMB/Ki^multi: 2.7
  rp/n: relative potency/number of benzamidine units: 2.7
Human plasmin; [4]
  Ki: 0.521 ± 0.0849 mM

## NC[C@H]1CC[C@H](C(=O)NCCCC[C@H](NC(=O)[C@H]2CC[C@H](CN)CC2)C(N)=O)CC1 [Bis-TXA]
Human plasmin; TXA affinity molecules, human plasmin 42.5 nM, S-2251 100-500 μM, read-out: Inhibition constant (Ki)
  Ki: 6.4 ± 2.03 mM
Human plasmin; human plasmin 42.5 nM, S-2251 100-500 μM, text value in mM, read-out: Ki (active site inhibition of plasmin)
  Ki: 6.4 mM
Human plasmin; plasmin, TXA affinity molecules relative to TXA, S-2251 100-500 μM
  rp: relative potency = Ki^TXA/Ki^multi: 3.3
Human plasmin; plasmin, relative to TXA per TXA unit, S-2251 100-500 μM
  rp/n: relative potency/number of TXA units: 1.7

## NC[C@H]1CC[C@H](C(=O)O)CC1 [TXA, Tranexamic acid]
[1]
  Ki: 0.75 µM
[2]
  clinical trial outcome of delayed treatment: ineffective or harmful

## N=C(N)c1ccc(OCCCCCOc2ccc(C(=N)N)cc2)cc1 [Pentamidine, reference compound]
tPA
  tPA inhibition relative to another inhibitor: stronger inhibitor than Tri-AMB
  Ki: 48 ± 12 µM
  tPA inhibition compared to plasmin: weaker tPA inhibitors compared to plasmin
Human plasmin; plasmin 42.5 nM, PBS pH 7.4
  mode of inhibition (Cornish-Bowden plot): competitive inhibitor
Human plasmin; plasmin, S-2251 100-500 μM
  rp: relative potency = Ki^AMB/Ki^multi: 664.3
  rp/n: relative potency/number of benzamidine units: 332.1
Human plasmin; [4]
  Ki: 0.0021 mM and 0.0026 mM
thrombin; [5]
  thrombin inhibition relative to another inhibitor: slightly stronger thrombin inhibitor than Tri-AMB
  Ki: 4.5 ± 2.3 µM
thrombin
  thrombin inhibition compared to plasmin: slightly weaker thrombin inhibitors compared to plasmin
plasmin
  fold stronger plasmin inhibitor than the strongest monovalent benzamidine: 15 fold

## N=C(N)c1ccc(CNC(=O)CN(CC(=O)NCc2ccc(C(=N)N)cc2)CC(=O)NCc2ccc(C(=N)N)cc2)cc1 [Tri-AMB]
tPA
  Ki: 112 ± 21 µM
  tPA inhibition compared to plasmin: weaker tPA inhibitors compared to plasmin
thrombin; [5]
  Ki: 10.6 ± 2 µM
thrombin
  thrombin inhibition compared to plasmin: slightly weaker thrombin inhibitors compared to plasmin

## N=C(N)c1ccccc1 [Benzamidine]
[3]
  subsite binding: weak subsite binding

## N=C(N)c1ccc(CN)cc1 [AMB, 4-aminomethyl benzamidine, reference compound]
tPA
  Ki: 5210 ± 161 µM
Human plasmin; [6]
  Ki: 1.4 ± 0.166 mM
Human plasmin; plasmin 42.5 nM, PBS pH 7.4
  mode of inhibition (Cornish-Bowden plot): competitive inhibitor
Human plasmin; [4]
  Ki: 1.4 mM
thrombin; [5]
  Ki: 344 ± 33 µM

## N=C(N)c1ccc(CNC(=O)CCOCCOCCOCCOCCOCCOCCOCCOCCNC(=O)[C@H]2CC[C@H](CN)CC2)cc1 [TXA-dPEG8-AMB]
Human plasmin; [6]
  Ki: 0.099 ± 0.0009 mM
Human plasmin; plasmin, S-2251 100-500 μM
  rp1: relative potency = Ki^AMB/Ki^multi: 14
  rp2: relative potency = Ki^TXA or EACA/Ki^multi: 216

## N=C(N)c1ccc(CNC(=O)CCOCCOCCOCCOCCOCCOCCOCCOCCOCCOCCOCCOCCOCCOCCOCCOCCOCCOCCOCCOCCOCCOCCOCCOCCOCCOCCOCCOCCOCCOCCOCCOCCOCCOCCOCCOCCNC(=O)[C@H]2CC[C@H](CN)CC2)cc1 [TXA-dPEG36-AMB]
Human plasmin; [6]
  Ki: 0.075 mM and 0.0754 mM
Human plasmin; plasmin, S-2251 100-500 μM
  rp1: relative potency = Ki^AMB/Ki^multi: 19
  rp2: relative potency = Ki^TXA or EACA/Ki^multi: 285
thrombin; [5]
  Ki: 78 ± 1.5 µM

## N=C(N)c1ccc(CNC(=O)CCOCCOCCOCCOCCOCCOCCOCCOCCOCCOCCOCCOCCNC(=O)[C@H]2CC[C@H](CN)CC2)cc1 [TXA-dPEG12-AMB]
tPA
  tPA inhibition relative to another inhibitor: stronger tPA inhibitor than TXA-PEG4-AMB
  Ki: 128 ± 11 µM
Human plasmin; [6]
  Ki: 0.207 mM
Human plasmin; plasmin, S-2251 100-500 μM
  rp1: relative potency = Ki^AMB/Ki^multi: 7
  rp2: relative potency = Ki^TXA or EACA/Ki^multi: 103
thrombin; [5]
  Ki: 46 ± 1.5 µM

## N=C(N)c1ccc(CNC(=O)CCOCCOCCOCCOCCNC(=O)CCCCCN)cc1 [EACA-dPEG4-AMB]
Human plasmin; [6]
  Ki: 0.233 ± 0.005 mM
Human plasmin; plasmin, S-2251 100-500 μM
  rp1: relative potency = Ki^AMB/Ki^multi: 6
  rp2: relative potency = Ki^TXA or EACA/Ki^multi: 305
thrombin; [5]
  Ki: 5.6 ± 0.2 µM

## N=C(N)c1ccc(C(=O)O)cc1 [4-carboxy benzamidine, 4-Carboxybenzamidine, reference compound]
thrombin; [5]
  Ki: 151 ± 4 µM

## N=C(N)c1ccc(N)cc1 [4-amino benzamidine, 4-Aminobenzamidine, reference compound]
tPA
  Ki: 148 ± 0.9 µM

## N=C(N)c1ccc(CNC(=O)CCOCCOCCC(=O)NCc2ccc(C(=N)N)cc2)cc1 [Bis-dPEG2-AMB]
Human plasmin; plasmin 42.5 nM, PBS pH 7.4
  mode of inhibition (Cornish-Bowden plot): competitive inhibition; also recorded: competitive inhibitor
Human plasmin; plasmin, S-2251 100-500 μM
  rp: relative potency = Ki^AMB/Ki^multi: 25.2
  rp/n: relative potency/number of benzamidine units: 12.6

## N=C(N)c1ccc(CNC(=O)CCOCCOCCOCCOCCNC(=O)[C@H]2CC[C@H](CN)CC2)cc1 [TXA-dPEG4-AMB]
tPA
  Ki: 230 ± 30 µM
Human plasmin; [6]
  Ki: 0.042 ± 0.0124 mM
Human plasmin; plasmin, S-2251 100-500 μM
  rp1: relative potency = Ki^AMB/Ki^multi: 33
  rp2: relative potency = Ki^TXA or EACA/Ki^multi: 509
Human plasmin; plasmin, relative to m-dPEG4-AMB, S-2251 100-500 μM
  fold stronger than m-dPEG4-AMB (plasmin inhibition): over 7 fold
thrombin; [5]
  Ki: 14.5 ± 6.7 µM

## N=C(N)c1ccc(CNC(=O)CCOCCOCCOCCOCCNC(=O)CN(CC(=O)NCCOCCOCCOCCOCCC(=O)NCc2ccc(C(=N)N)cc2)CC(=O)NCCOCCOCCOCCOCCC(=O)NCc2ccc(C(=N)N)cc2)cc1 [Tri-dPEG4-AMB]
Human plasmin; plasmin 42.5 nM, PBS pH 7.4
  mode of inhibition (Cornish-Bowden plot): competitive inhibitor
Human plasmin; plasmin, S-2251 100-500 μM
  rp: relative potency = Ki^AMB/Ki^multi: 27.6
  rp/n: relative potency/number of benzamidine units: 9.2
Human plasmin; [4]
  Ki: 0.0505 ± 0.014 mM

## COCCOCCOCCOCCOCCOCCOCCOCCOCCOCCOCCOCCC(=O)NCc1ccc(C(=N)N)cc1 [m-dPEG12-AMB]
Human plasmin; plasmin 42.5 nM, PBS pH 7.4
  mode of inhibition (Cornish-Bowden plot): competitive inhibitor
Human plasmin; plasmin, S-2251 100-500 μM
  rp: relative potency = Ki^AMB/Ki^multi: 3.9
  rp/n: relative potency/number of benzamidine units: 3.9
Human plasmin; [4]
  Ki: 0.36 ± 0.0352 mM

## NCCCCCC(=O)O [EACA, ε-Aminocaproic Acid, reference compound]
thrombin; [5]
  Ki: > 10000 µM
